Reference: ChEMBL document CHEMBL6092170, “Activity of the Caged Xanthone Morellic Acid against Vancomycin-Resistant Enterococcus Infection by Targeting the Bacterial Membrane” (2024)
Converted amounts (≈) assume the structure as drawn. The source made the active and inactive calls. The calls are words filed in the database; no cut-off is given here.

Experiments:
[1] = tested on: Enterococcus faecalis; assay: Antibacterial activity against vancomycin-resistant Enterococcus faecalis ATCC 51299 incubated for 24 hrs by CLSI based microdilution method; type: functional
[2] = tested on: Staphylococcus aureus; assay: Antibacterial activity against methicillin-resistant Staphylococcus aureus incubated for 24 hrs by CLSI based microdilution method; type: functional
[3] = tested on: Enterococcus faecalis; assay: Antibacterial activity against vancomycin-resistant Enterococcus faecalis ATCC 51299 infected in specific pathogen-free Kunming mouse model of abdominal infection assessed as reduction in bacterial load in kidney at 10 mg/kg, ip measured after 72 hrs by plate counting method; type: functional, organism-based
[4] = tested on: Enterococcus faecalis; assay: Antibacterial activity against vancomycin-resistant Enterococcus faecalis ATCC 51299 infected in specific pathogen-free Kunming mouse model of abdominal infection assessed as reduction in bacterial load in spleen at 10 mg/kg, ip measured after 72 hrs by plate counting method; type: functional, organism-based
[5] = tested on: Enterococcus faecalis; assay: Disruption of morphology in vancomycin-resistant Enterococcus faecalis ATCC 51299 at 4 times MIC incubated for 18 hrs by SEM analysis; type: functional, organism-based
[6] = tested on: Staphylococcus aureus; assay: Antibacterial activity against Staphylococcus aureus assessed as bacterial growth inhibition at 0.5 to 4 times MIC measured for 4 hrs by absorbance based assay; type: functional, organism-based
[7] = tested on: Enterococcus faecalis; assay: Antibacterial activity against vancomycin-resistant Enterococcus faecalis ATCC 51299 infected in specific pathogen-free Kunming mouse model of abdominal infection assessed as reduction in bacterial load in liver at 10 mg/kg, ip measured after 72 hrs by plate counting method; type: functional, organism-based
[8] = tested on: Enterococcus faecalis; assay: Antibacterial activity against vancomycin-resistant Enterococcus faecalis ATCC 51299 infected in specific pathogen-free Kunming mouse model of abdominal infection assessed as reduction in bacterial load in abdominal effusion at 10 mg/kg, ip measured after 72 hrs by plate counting method; type: functional, organism-based
[9] = tested on: Enterococcus faecalis; assay: Induction of resistance development in vancomycin-resistant Enterococcus faecalis ATCC 51299 at sub-MIC measured after 20 days of continuous passages; type: functional, organism-based; conditions: time 20.0 day
[10] = tested on: Enterococcus faecalis; assay: Induction of resistance development in vancomycin-resistant Enterococcus faecalis ATCC 51299 assessed as fold increase in activity at sub-MIC measured after 4 days of continuous passages relative to control; type: functional; conditions: time 4 day
[11] = tested on: Enterococcus faecalis; assay: Antibacterial activity against vancomycin-resistant Enterococcus faecalis ATCC 51299 assessed as bacterial growth inhibition at 0.5 to 4 times MIC measured after 12 hrs by absorbance based assay; type: functional, organism-based
[12] = tested on: Enterococcus faecalis; assay: Disruption of membrane integrity in vancomycin-resistant Enterococcus faecalis ATCC 51299 at 2 times MIC incubated for 2 hrs by Hoechst staining based CLSM analysis; type: functional, organism-based
[13] = tested on: Enterococcus faecalis; assay: Disruption of membrane integrity in vancomycin-resistant Enterococcus faecalis ATCC 51299 at 2 times MIC incubated for 2 hrs by SYTOX Green staining based CLSM analysis; type: functional, organism-based
[14] = tested on: Enterococcus faecalis; assay: Disruption of membrane integrity in vancomycin-resistant Enterococcus faecalis ATCC 51299 at 2 times MIC incubated for 2 hrs by PI staining based CLSM analysis; type: functional, organism-based

SMILES	MIC [1]	MIC [2]	other results
COc1cc2oc3cc(OC)c(OC)c(CC=C(C)C)c3c(=O)c2c(O)c1CC=C(C)C	> 16 µg/mL	> 16 µg/mL	
CO[C@@]1(NC(=O)Cc2cccs2)C(=O)N2C(C(=O)O)=C(COC(N)=O)CS[C@@H]21 [CEFOXITIN]		> 16 µg/mL	
COc1c(O)cc2oc3cc(O)c(CCC(C)(C)O)c(O)c3c(=O)c2c1CC=C(C)C	16 µg/mL (≈ 37.3 µM)	16 µg/mL (≈ 37.3 µM)	
COc1c(O)cc2oc3cc(O)c(CC=C(C)C)c(O)c3c(=O)c2c1CC=C(C)C [MANGOSTIN]	4 µg/mL (≈ 9.75 µM)	4 µg/mL (≈ 9.75 µM)	
CC(C)=CCC[C@]1(C)CC(O)c2c(O)c3c(c(CC=C(C)C)c2O1)O[C@]12C(=C[C@@H]4C[C@H]1C(C)(C)O[C@@]2(C/C=C(/C)C(=O)O)C4=O)C3=O (stereo partly drawn)	16 µg/mL (≈ 24.7 µM)	8 µg/mL (≈ 12.4 µM)	
CC(C)=CCc1c(O)c(CC=C(C)C)c2oc3c(O)ccc(O)c3c(=O)c2c1O [GARTANIN]	> 16 µg/mL	> 16 µg/mL	
CC1(C)S[C@@H]2[C@H](NC(=O)[C@H](N)c3ccccc3)C(=O)N2[C@H]1C(=O)O [AMPICILLIN]	4 µg/mL (≈ 11.4 µM)		Activity [3]: Active; Activity [4]: Active; Activity [5]: Active; inhibition [6]: Active; Activity [7]: Active; Activity [8]: Active
COc1cc2oc3cc(O)c(OC)c(CC=C(C)C)c3c(=O)c2c(O)c1CC=C(C)C	16 µg/mL (≈ 37.7 µM)	> 16 µg/mL	
CCCCCCCCCC(=O)N[C@@H](Cc1c[nH]c2ccccc12)C(=O)N[C@@H](CC(N)=O)C(=O)N[C@@H](CC(=O)O)C(=O)N[C@@H]1C(=O)NCC(=O)N[C@@H](CCCN)C(=O)N[C@@H](CC(=O)O)C(=O)N[C@H](C)C(=O)N[C@@H](CC(=O)O)C(=O)NCC(=O)N[C@H](CO)C(=O)N[C@@H]([C@@H](C)CC(=O)O)C(=O)N[C@@H](CC(=O)c2ccccc2N)C(=O)O[C@@H]1C			Activity [9]: inactive; fold change (FC) [10]: 32
CN[C@H](CC(C)C)C(=O)N[C@H]1C(=O)N[C@@H](CC(N)=O)C(=O)N[C@H]2C(=O)N[C@H]3C(=O)N[C@H](C(=O)N[C@H](C(=O)O)c4cc(O)cc(O)c4-c4cc3ccc4O)[C@H](O)c3ccc(c(Cl)c3)Oc3cc2cc(c3O[C@@H]2O[C@H](CO)[C@@H](O)[C@H](O)[C@H]2O[C@H]2C[C@](C)(N)[C@H](O)[C@H](C)O2)Oc2ccc(cc2Cl)[C@H]1O			inhibition [11]: inactive
CC(C)=CCc1c(O)cc2oc3cc(O)c(O)c(CCC(C)(C)O)c3c(=O)c2c1O	> 16 µg/mL	4 µg/mL (≈ 9.65 µM)	
CC(C)=CCc1c(O)cc2oc3cc(O)c(O)c(CC=C(C)C)c3c(=O)c2c1O	4 µg/mL (≈ 10.1 µM)	4 µg/mL (≈ 10.1 µM)	
CC(C)=CCc1c(O)c(CC=C(C)C)c2oc3c(O)cccc3c(=O)c2c1O [8-DEOXYGARTANIN]	> 16 µg/mL	> 16 µg/mL	
COc1c(O)cc2oc3cc(O)c(CC=C(C)C)c(O)c3c(=O)c2c1CCC(C)(C)O [GARCINONE D]	4 µg/mL (≈ 9.34 µM)	8 µg/mL (≈ 18.7 µM)	
C=C(C)C1CC[C@]2(C)CC1c1c(O)c3c(c(CC=C(C)C)c1O2)O[C@]12C(=C[C@@H]4CC1C(C)(C)OC2(C/C=C(\C)C(=O)O)C4=O)C3=O (stereo partly drawn)	> 16 µg/mL	> 16 µg/mL	
CC(C)=CCC[C@]1(C)C=Cc2c(O)c3c(c(CC=C(C)C)c2O1)O[C@]12C(=C[C@@H]4C[C@H]1C(C)(C)O[C@@]2(C/C=C(/C)C(=O)O)C4=O)C3=O [GAMBOGIC ACID]	4 µg/mL (≈ 6.36 µM)	4 µg/mL (≈ 6.36 µM)	
CC[C@H](C)[C@H](NC(=O)CN)C(=O)NCC(=O)N[C@@H](C)C(=O)N[C@H](C(=O)N[C@@H](CC(C)C)C(=O)N[C@@H](CCCCN)C(=O)N[C@H](C(=O)N[C@@H](CC(C)C)C(=O)N[C@H](C(=O)N[C@H](C(=O)NCC(=O)N[C@@H](CC(C)C)C(=O)N1CCC[C@H]1C(=O)N[C@@H](C)C(=O)N[C@@H](CC(C)C)C(=O)N[C@H](C(=O)N[C@@H](CO)C(=O)N[C@@H](Cc1c[nH]c2ccccc12)C(=O)N[C@H](C(=O)N[C@@H](CCCCN)C(=O)N[C@@H](CCCNC(=N)N)C(=O)N[C@@H](CCCCN)C(=O)N[C@@H](CCCNC(=N)N)C(=O)N[C@@H](CCC(N)=O)C(=O)N[C@@H](CCC(N)=O)C(N)=O)[C@@H](C)CC)[C@@H](C)CC)[C@@H](C)O)[C@@H](C)O)C(C)C)C(C)C			Activity [12]: Active; Activity [13]: Active; Activity [14]: Active
